Measured values: patent US10752609B2, “GSK-3 inhibitors” (priority 2016, dated 2020)
Like-named read-outs stand apart in the source and are kept apart here.

Legend:
GSK3α = GSK3α (Homo sapiens, UniProt P49840); assay: GSK3α kinase assay (Caliper LabChip3000 mobility shift, fluoresceinated peptide substrate)
pTau = pTau assay (no method described); format: cell-based
GSK3β = GSK3β (Homo sapiens, UniProt P49841); assay: GSK3β kinase assay (Caliper LabChip3000 mobility shift, fluoresceinated peptide substrate); format: biochemical
Sequence of GSK3β (P49841 whole entry, species assumed): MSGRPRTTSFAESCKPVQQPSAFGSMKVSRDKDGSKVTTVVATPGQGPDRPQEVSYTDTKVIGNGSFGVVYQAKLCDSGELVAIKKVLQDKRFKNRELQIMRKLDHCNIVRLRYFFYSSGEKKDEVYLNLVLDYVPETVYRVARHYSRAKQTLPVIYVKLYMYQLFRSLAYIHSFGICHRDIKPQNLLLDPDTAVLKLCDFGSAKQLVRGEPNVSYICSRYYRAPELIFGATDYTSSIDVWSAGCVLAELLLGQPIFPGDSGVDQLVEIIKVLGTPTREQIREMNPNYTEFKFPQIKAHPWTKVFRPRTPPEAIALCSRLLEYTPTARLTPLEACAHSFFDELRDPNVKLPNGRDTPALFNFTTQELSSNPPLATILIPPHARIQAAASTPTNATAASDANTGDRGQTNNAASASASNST

[1] = 250 pM enzyme, 20 uM ATP, 1.5 uM peptide, 20 hours room temperature, first value of cell GSK3β/GSK3α, read-out: GSK3β (nM), IC50

Sequence of GSK3α (P49840 whole entry, species assumed): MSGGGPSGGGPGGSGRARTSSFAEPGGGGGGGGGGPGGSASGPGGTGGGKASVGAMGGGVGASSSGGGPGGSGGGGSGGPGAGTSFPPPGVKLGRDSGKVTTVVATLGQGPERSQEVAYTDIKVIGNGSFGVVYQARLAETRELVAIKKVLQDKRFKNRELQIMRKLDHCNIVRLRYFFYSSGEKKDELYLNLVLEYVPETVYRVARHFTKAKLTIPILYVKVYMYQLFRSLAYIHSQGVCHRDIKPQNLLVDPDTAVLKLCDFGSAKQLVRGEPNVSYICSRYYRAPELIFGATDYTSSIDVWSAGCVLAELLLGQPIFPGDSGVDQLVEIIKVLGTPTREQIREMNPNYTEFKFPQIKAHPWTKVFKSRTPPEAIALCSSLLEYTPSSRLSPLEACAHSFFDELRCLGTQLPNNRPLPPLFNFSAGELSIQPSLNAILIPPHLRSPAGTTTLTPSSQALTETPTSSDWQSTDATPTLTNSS

| SMILES | IC50 (GSK3α) | IC50 (pTau) | IC50 (GSK3β; [1]) | IC50 (GSK3β) |
| --- | --- | --- | --- | --- |
| CCOc1ccc(Nc2nccc(C(=O)Nc3cnccc3-c3ccccc3)n2)cc1 [Example 7, 2-((4-Ethoxyphenyl)amino)-N-(4-phenylpyridin-3-yl)pyrimidine-4-carboxamide] | 1.1 nM | 140 nM | 16 nM | – |
| O=C(Nc1cnccc1-c1ccccc1)c1ccnc(Nc2ccccn2)n1 [Example 163, N-(4-Phenylpyridin-3-yl)-2-(pyridin-2-ylamino)pyrimidine-4-carboxamide] | 210 nM | 10000 nM | 310 nM | – |
| O=C(Nc1cncnc1OCC(F)(F)F)c1ccnc(Nc2ccc(OC(F)(F)F)cc2)n1 [Example 69, N-(4-(2,2,2-Trifluoroethoxy)pyrimidin-5-yl)-2-((4-(trifluoromethoxy)phenyl)amino)pyrimidine-4-carboxamide] | 0.6 nM | 160 nM | 0.56 nM | – |
| O=C(Nc1cncnc1OCC(F)(F)F)c1ccnc(Nc2ccccc2)n1 [Example 76, 2-(Phenylamino)-N-(4-(2,2,2-trifluoroethoxy)pyrimidin-5-yl)pyrimidine-4-carboxamide] | 0.56 nM | 77 nM | 1.1 nM | – |
| O=C(Nc1cnccc1-c1ccccc1)c1ccnc(Nc2ccc(OC(F)F)cc2Cl)n1 [Example 29, 2-((2-Chloro-4-(difluoromethoxy)phenyl)amino)-N-(4-phenylpyridin-3-yl)pyrimidine-4-carboxamide] | 2.6 nM | 1400 nM | 4.6 nM | – |
| CC(Nc1nccc(C(=O)Nc2cnccc2OCC(F)(F)F)n1)C(C)(C)C (stereo not drawn) [Example 126, 2-((3,3-Dimethylbutan-2-yl)amino)-N-(4-(2,2,2-trifluoroethoxy)pyridin-3-yl)pyrimidine-4-carboxamide] | 0.41 nM | 110 nM | 1.1 nM | – |
| COc1cc(Nc2nccc(C(=O)Nc3cnccc3-c3ccccc3)n2)ccn1 [Example 37, 2-((2-Methoxypyridin-4-yl)amino)-N-(4-phenylpyridin-3-yl)pyrimidine-4-carboxamide] | 0.51 nM | 33 nM | 0.54 nM | – |
| Nc1nccc(C(=O)Nc2cnccc2N2CCC(F)(F)CC2)n1 [Example 2, 2-Amino-N-(4-(4,4-difluoropiperidin-1-yl)pyridin-3-yl)pyrimidine-4-carboxamide] | 18 nM | 1100 nM | 30 nM | – |
| O=C(Nc1cnc(F)cc1N1CCOCC1)c1ccnc(NC2COC2)n1 [Example 175, N-(6-Fluoro-4-morpholinopyridin-3-yl)-2-(oxetan-3-ylamino)pyrimidine-4-carboxamide] | 27 nM | 2100 nM | 46 nM | – |
| O=C(Nc1cncc(-c2ccccc2F)c1)c1ccnc(NCC2CC2)n1 [Example 186, 2-((Cyclopropylmethyl)amino)-N-(5-(2-fluorophenyl)pyridin-3-yl)pyrimidine-4-carboxamide] | 9.9 nM | 5000 nM | 6 nM | – |
| O=C(Nc1cnccc1OCC(F)(F)F)c1ccnc(Nc2ccc(C(F)(F)F)nc2)n1 [Example 64, N-(4-(2,2,2-Trifluoroethoxy)pyridin-3-yl)-2-((6-(trifluoromethyl)pyridin-3-yl)amino)pyrimidine-4-carboxamide] | 0.19 nM | 8.5 nM | 0.2 nM | – |
| Cc1ccc(Nc2nccc(C(=O)Nc3cnccc3OCC(F)(F)F)n2)cn1 [Example 83, 2-((6-Methylpyridin-3-yl)amino)-N-(4-(2,2,2-trifluoroethoxy)pyridin-3-yl)pyrimidine-4-carboxamide] | 0.16 nM | 5.1 nM | 0.22 nM | – |
| O=C(Nc1cnc(F)cc1N1CCC(F)(F)CC1)c1ccnc(NCC2CC2)n1 [Example 179, 2-((Cyclopropylmethyl)amino)-N-(4-(4,4-difluoropiperidin-1-yl)-6-fluoropyridin-3-yl)pyrimidine-4-carboxamide] | 0.61 nM | 94 nM | 0.7 nM | – |
| O=C(Nc1cncnc1OCC(F)(F)F)c1ccnc(Nc2ccc(Cl)cc2)n1 [Example 67, 2-((4-Chlorophenyl)amino)-N-(4-(2,2,2-trifluoroethoxy)pyrimidin-5-yl)pyrimidine-4-carboxamide] | 0.36 nM | 90 nM | 0.97 nM | – |
| Cc1ccc(Nc2nccc(C(=O)Nc3cnccc3-c3ccccc3)n2)cc1 [Example 8, N-(4-Phenylpyridin-3-yl)-2-(p-tolylamino)pyrimidine-4-carboxamide] | 0.22 nM | 71 nM | 0.31 nM | – |
| CCn1nccc1Nc1nccc(C(=O)Nc2cnccc2-c2ccccc2)n1 [Example 90, 2-((1-Ethyl-1H-pyrazol-5-yl)amino)-N-(4-phenylpyridin-3-yl)pyrimidine-4-carboxamide] | 2.2 nM | 120 nM | – | 3 nM |
| O=C(Nc1cnccc1OCC(F)(F)F)c1ccnc(NC2CCOCC2)n1 [Example 124, 2-((Tetrahydro-2H-pyran-4-yl)amino)-N-(4-(2,2,2-trifluoroethoxy)pyridin-3-yl)pyrimidine-4-carboxamide] | 0.95 nM | 68 nM | – | 0.99 nM |

| SMILES | IC50 (GSK3α) | IC50 (pTau) | IC50 (GSK3β; [1]) | IC50 (GSK3β) |
| --- | --- | --- | --- | --- |
| COc1ccc(Nc2nccc(C(=O)Nc3cnccc3-c3ccccc3)n2)cc1Cl [Example 18, 2-((3-Chloro-4-methoxyphenyl)amino)-N-(4-phenylpyridin-3-yl)pyrimidine-4-carboxamide] | 0.32 nM | 37 nM | 0.23 nM | – |
| O=C(Nc1cnccc1OCC(F)(F)F)c1ccnc(NCc2ccccc2)n1 [Example 128, 2-(Benzylamino)-N-(4-(2,2,2-trifluoroethoxy)pyridin-3-yl)pyrimidine-4-carboxamide] | 1.3 nM | 210 nM | 1.2 nM | – |
| Cc1ccccc1-c1cccc(Nc2nccc(C(=O)Nc3cncnc3)n2)c1 [Example 196, 2-((2′-Methyl-[1,1′-biphenyl]-3-yl)amino)-N-(pyrimidin-5-yl)pyrimidine-4-carboxamide] | 3.9 nM | 840 nM | 5.2 nM | – |
| Cn1nc(C2CC2)cc1Nc1nccc(C(=O)Nc2cnccc2-c2ccccc2)n1 [Example 97, 2-((3-Cyclopropyl-1-methyl-1H-pyrazol-5-yl)amino)-N-(4-phenylpyridin-3-yl)pyrimidine-4-carboxamide] | 30 nM | 870 nM | 29 nM | – |
| O=C(Nc1cnc(F)cc1N1CCOCC1)c1ccnc(Nc2cccc(Cl)c2)n1 [Example 168] | 0.2 nM | 21 nM | 0.17 nM | – |
| O=C(Nc1cnc(F)cc1N1CCOCC1)c1ccnc(Nc2ccc(Cl)cc2)n1 [Example 170] | 0.21 nM | 48 nM | 0.34 nM | – |
| O=C(Nc1cncnc1OCC(F)(F)F)c1ccnc(NCC2CCC2)n1 [Example 188, 2-((Cyclobutylmethyl)amino)-N-(4-(2,2,2-trifluoroethoxy)pyrimidin-5-yl)pyrimidine-4-carboxamide] | 1 nM | 180 nM | – | 0.83 nM |
| N#Cc1ccc(Nc2nccc(C(=O)Nc3cnccc3-c3ccccc3)n2)cc1Cl [Example 27, 2-((3-Chloro-4-cyanophenyl)amino)-N-(4-phenylpyridin-3-yl)pyrimidine-4-carboxamide] | 0.16 nM | 20 nM | – | 0.24 nM |
| Cn1ccc(Nc2nccc(C(=O)Nc3cnccc3-c3ccccc3)n2)n1 [Example 98, 2-((1-Methyl-1H-pyrazol-3-yl)amino)-N-(4-phenylpyridin-3-yl)pyrimidine-4-carboxamide] | 37 nM | 2600 nM | 46 nM | – |
| O=C(Nc1cnccc1OCC(F)(F)F)c1ccnc(NCc2ccc(F)cc2)n1 [Example 131, 2-((4-Fluorobenzyl)amino)-N-(4-(2,2,2-trifluoroethoxy)pyridin-3-yl)pyrimidine-4-carboxamide] | 2.2 nM | 160 nM | 1.8 nM | – |
| N#Cc1ccc(Nc2nccc(C(=O)Nc3cncnc3OCC(F)(F)F)n2)cc1 [Example 66, 2-((4-Cyanophenyl)amino)-N-(4-(2,2,2-trifluoroethoxy)pyrimidin-5-yl)pyrimidine-4-carboxamide] | 0.67 nM | 22 nM | 1 nM | – |
| O=C(Nc1cnccc1-c1ccc(F)cc1)c1ccnc(Nc2ccc(C(F)(F)F)cc2)n1 [Example 47, N-(4-(4-Fluorophenyl)pyridin-3-yl)-2-((4-(trifluoromethyl)phenyl)amino)pyrimidine-4-carboxamide] | 0.7 nM | 100 nM | 2.1 nM | – |
| O=C(Nc1cnccc1-c1ccc(F)cc1)c1ccnc(Nc2ccc(F)cc2)n1 [Example 44, 2-((4-Fluorophenyl)amino)-N-(4-(4-fluorophenyl)pyridin-3-yl)pyrimidine-4-carboxamide] | 0.46 nM | 34 nM | 0.26 nM | – |
| O=C(Nc1cnccc1OCC(F)(F)F)c1ccnc(Nc2ccc(Cl)cc2F)n1 [Example 61, 2-((4-Chloro-2-fluorophenyl)amino)-N-(4-(2,2,2-trifluoroethoxy)pyridin-3-yl)pyrimidine-4-carboxamide] | 0.39 nM | 230 nM | 0.72 nM | – |
| O=C(Nc1cnccc1OCC(F)(F)F)c1ccnc(NC2CCCC2)n1 [Example 116, 2-(Cyclopentylamino)-N-(4-(2,2,2-trifluoroethoxy)pyridin-3-yl)pyrimidine-4-carboxamide] | 0.16 nM | 12 nM | 0.19 nM | – |
| CC(C)(C)CNc1nccc(C(=O)Nc2cncnc2OCC(F)(F)F)n1 [Example 189, 2-(Neopentylamino)-N-(4-(2,2,2-trifluoroethoxy)pyrimidin-5-yl)pyrimidine-4-carboxamide] | 0.8 nM | 410 nM | 1.43 nM | – |
| O=C(Nc1cnccc1OCC(F)(F)F)c1ccnc(NC2CC2)n1 [Example 130, 2-(Cyclopropylamino)-N-(4-(2,2,2-trifluoroethoxy)pyridin-3-yl)pyrimidine-4-carboxamide] | 1.5 nM | 46 nM | 1.6 nM | – |
